Drawing on ChEMBL document CHEMBL1158059, “Oculatol, oculatolide, and A-nor sterols from the sponge Haliclona oculata” (J Nat Prod, 2006), this text covers IC50 for one compound.

≈ marks a conversion by molar mass, not a printed value.

Assay [1] addresses T1, Prostaglandin G/H synthase 2 (Homo sapiens, UniProt P35354).
T1 sequence (P35354 whole entry): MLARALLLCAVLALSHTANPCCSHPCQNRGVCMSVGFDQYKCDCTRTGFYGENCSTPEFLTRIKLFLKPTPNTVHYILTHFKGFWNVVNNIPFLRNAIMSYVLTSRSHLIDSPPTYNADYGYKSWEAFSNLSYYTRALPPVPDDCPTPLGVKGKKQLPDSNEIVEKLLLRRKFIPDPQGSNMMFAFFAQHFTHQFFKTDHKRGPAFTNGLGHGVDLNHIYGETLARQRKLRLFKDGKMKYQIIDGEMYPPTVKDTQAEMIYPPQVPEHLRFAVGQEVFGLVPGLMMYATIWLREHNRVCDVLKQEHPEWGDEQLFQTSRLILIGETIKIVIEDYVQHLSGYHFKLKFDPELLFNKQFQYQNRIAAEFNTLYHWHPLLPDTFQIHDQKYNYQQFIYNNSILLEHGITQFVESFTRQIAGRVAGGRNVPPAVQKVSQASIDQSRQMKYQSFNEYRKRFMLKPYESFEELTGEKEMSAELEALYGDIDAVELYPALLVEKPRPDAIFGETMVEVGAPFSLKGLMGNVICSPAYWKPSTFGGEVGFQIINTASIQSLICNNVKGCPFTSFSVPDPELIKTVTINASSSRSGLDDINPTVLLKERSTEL
Kind of assay: Inhibition of COX2.

A further assay concerns Bel-7402. Briefly: Cytotoxicity against human Bel-7402 cells. The format is functional, cell-based.
A further assay concerns HL-60. Kind of assay: Cytotoxicity against human HL-60 cells. The format is functional, cell-based.
In a further assay the test system is HeLa. Briefly: Cytotoxicity against human HeLa cells. It counts as functional, cell-based.
In a further assay the test system is A549. Kind of assay: Cytotoxicity against human A549 cells. The format is functional, cell-based.
Assay [2] addresses T2, Tyrosine-protein phosphatase non-receptor type 1 (Homo sapiens, UniProt P18031).
T2 sequence (P18031 whole entry): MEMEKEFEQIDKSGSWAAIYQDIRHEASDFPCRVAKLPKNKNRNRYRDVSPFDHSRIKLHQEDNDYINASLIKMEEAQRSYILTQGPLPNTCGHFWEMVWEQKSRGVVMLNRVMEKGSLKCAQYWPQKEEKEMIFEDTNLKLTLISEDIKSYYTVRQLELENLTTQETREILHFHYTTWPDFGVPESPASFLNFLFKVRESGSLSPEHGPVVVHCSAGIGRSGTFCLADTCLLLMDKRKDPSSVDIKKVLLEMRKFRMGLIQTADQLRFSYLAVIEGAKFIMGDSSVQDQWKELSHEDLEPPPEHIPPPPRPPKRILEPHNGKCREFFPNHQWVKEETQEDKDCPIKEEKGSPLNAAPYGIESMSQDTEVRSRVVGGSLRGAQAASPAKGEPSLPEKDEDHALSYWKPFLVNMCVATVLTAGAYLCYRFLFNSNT
Kind of assay: Inhibition of PTP1B.

The target of the next assay is Acetylcholinesterase (Homo sapiens, UniProt P22303). Kind of assay: Inhibition of AChE.
Sequence of Acetylcholinesterase (P22303 whole entry): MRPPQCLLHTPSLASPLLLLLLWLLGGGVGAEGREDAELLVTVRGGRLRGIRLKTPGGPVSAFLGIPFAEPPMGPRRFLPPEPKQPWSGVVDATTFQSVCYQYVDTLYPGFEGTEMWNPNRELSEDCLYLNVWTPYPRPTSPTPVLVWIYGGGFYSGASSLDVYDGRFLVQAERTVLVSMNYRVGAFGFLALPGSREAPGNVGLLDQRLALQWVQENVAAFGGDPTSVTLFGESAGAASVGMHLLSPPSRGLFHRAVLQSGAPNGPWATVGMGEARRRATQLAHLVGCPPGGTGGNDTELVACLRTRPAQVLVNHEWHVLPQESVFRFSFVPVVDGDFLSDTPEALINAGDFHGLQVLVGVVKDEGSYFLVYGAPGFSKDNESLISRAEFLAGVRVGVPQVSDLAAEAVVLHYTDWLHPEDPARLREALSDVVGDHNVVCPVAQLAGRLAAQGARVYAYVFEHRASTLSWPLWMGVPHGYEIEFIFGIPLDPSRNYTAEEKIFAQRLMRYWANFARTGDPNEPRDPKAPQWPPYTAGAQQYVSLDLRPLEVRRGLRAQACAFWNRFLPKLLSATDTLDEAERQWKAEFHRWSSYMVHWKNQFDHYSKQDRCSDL

As for `C=C(CC[C@@H](C)[C@H]1CC[C@H]2[C@@H]3CC=C4C(=O)[C@](O)(C(=O)OCC)C[C@]4(C)[C@H]3CC[C@]12C)C(C)C`, the IC50 was above 21.2 µM in assay [1]; 0.73 µg/mL (≈ 1.55 µM) with Bel-7402; 0.32 µg/mL (≈ 0.68 µM) in the assay with HL-60; above 10 µg/mL in the assay on HeLa; 0.47 µg/mL (≈ 0.999 µM) in the assay on A549; above 21.2 µM in assay [2]. On Acetylcholinesterase, this compound had an IC50 above 21.2 µM.

Broadly, the IC50 is the point on the concentration scale where inhibition reaches its midpoint. A higher IC50 goes with lower potency.
